target: T1, TRPC5 (Homo sapiens, UniProt Q9UL62); assay: TRPC5 Fluorescence Assay - FLIPR format (HEK-TREx hTRPC5, Riluzole stimulation); assay type: cell-based; conditions: Table 7, read-out: TRPC5-FLIPR IC50
T1 construct: expressed in transfected cells; host or cells: HEK 293
T1 sequence (Q9UL62 1-973): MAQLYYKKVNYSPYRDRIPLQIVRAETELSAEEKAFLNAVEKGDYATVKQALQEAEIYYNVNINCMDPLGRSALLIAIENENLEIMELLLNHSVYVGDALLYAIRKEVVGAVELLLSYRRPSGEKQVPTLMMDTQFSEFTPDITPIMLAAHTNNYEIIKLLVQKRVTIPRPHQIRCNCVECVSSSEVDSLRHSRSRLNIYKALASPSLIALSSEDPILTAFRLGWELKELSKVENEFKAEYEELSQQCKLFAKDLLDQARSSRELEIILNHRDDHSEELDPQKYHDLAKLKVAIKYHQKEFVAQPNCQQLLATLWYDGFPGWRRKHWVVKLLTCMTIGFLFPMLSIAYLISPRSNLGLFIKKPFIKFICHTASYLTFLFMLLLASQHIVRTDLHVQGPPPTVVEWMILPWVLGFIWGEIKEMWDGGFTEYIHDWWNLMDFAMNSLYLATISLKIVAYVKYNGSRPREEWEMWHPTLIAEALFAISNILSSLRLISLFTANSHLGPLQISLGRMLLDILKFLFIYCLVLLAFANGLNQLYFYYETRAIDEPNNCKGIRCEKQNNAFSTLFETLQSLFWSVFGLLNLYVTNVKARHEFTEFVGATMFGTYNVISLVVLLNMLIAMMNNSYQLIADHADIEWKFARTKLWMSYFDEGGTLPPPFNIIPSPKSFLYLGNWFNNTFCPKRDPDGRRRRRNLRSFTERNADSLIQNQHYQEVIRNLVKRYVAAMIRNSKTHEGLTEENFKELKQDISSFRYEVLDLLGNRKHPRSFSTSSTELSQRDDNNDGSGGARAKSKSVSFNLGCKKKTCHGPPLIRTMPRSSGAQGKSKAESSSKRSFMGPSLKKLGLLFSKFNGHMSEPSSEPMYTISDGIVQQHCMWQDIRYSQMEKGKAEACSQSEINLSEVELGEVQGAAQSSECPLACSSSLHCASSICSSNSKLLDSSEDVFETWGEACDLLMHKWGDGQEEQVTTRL
Procedure: • Cell line: ICLN-001633 • Base Cell: HEK • Channel: TRPC5 • Species: Human • Thaw ID: multiple • Passage: multiple
FLIPR Assay Buffer (Earls Balanced Salt Solution (EBSS) was prepared as follows:
Test Agent Preparation: Compounds were made up to, or supplied as, a 10 mM stock solution generally using DMSO as the vehicle. 10-point dose response curves were generated using the Echo-550 acoustic dispenser. Compound source plates were made by serially diluting compound stocks to create 10 mM, 1 mM, and 0.1 mM solutions in DMSO into Echo certified LDV plates. The Echo then serially spotted 100% DMSO stock solutions into source dose response plates to generate a 4-fold dilution scheme. 100% DMSO was added to the spotted dose response plates to bring the final volume to 5 μl. […] of the dose response stock plate was then spotted into pre-incubation and stimulation assay plates. 50 μl of pre-incubation buffer and 100 μl of stimulation buffer was then added to the plates resulting in a final assay test concentration range of 30 μM to 0.0001 μM with a final DMSO concentration of 0.3%.
Experimental Methods: Cells expressing TRPC5 (HEK-TREx hTRPC5) are plated onto 384 well, black PDL-coated microplates and maintained in TRPC5 growth media the day prior to use for experiments. TRPC5 expression is induced by the application of […] tetracycline at the time of plating. Media is removed from the plates and 10 μl of 4 μM of Fluo-4 AM (mixed with equal volume of Pluronic F-127) in EBSS is added to the cells. Cells are incubated at room temperature, protected from light, for 60-90 minutes. After the incubation period, the dye is removed and replaced with 10 μl of EBSS. Cell, pre-incubation and stimulation plates are loaded onto the FLIPR-II and the assay is initiated. The FLIPR measures a 10 second baseline and then adds 10 μl of 2× compounds (or controls). Changes in fluorescence are monitored for an additional 5 minutes. After the 5 minute pre-incubation, 20 μl of 2× Riluzole (with 1× compound or controls) is added to the cell plate. The final Riluzole stimulation concentration in the assay is 30 μM. After the Riluzole addition, changes in fluorescence are monitored for an additional 5 minutes.
Test Agent Effect: Test agent modulation of TRPC5 calcium response was determined as follows. After the Riluzole, fluorescence was monitored for a 5 minute period. The maximum relative fluorescene response (minus the control response of 1 μM of the control inhibitor) was captured and exported from the FLIPR. Test agent effect was calculated as % inhibition using the following formula: % inhibition=((RFU Test Agent−Plate Average RFU REF INHIB)/(Plate Average RFU Control−Plate Average RFU REF INHIB))×100

Structure (SMILES) | IC50 [nM]
CN(C)C(=O)c1nn(Cc2ccccc2C(F)F)c2c1CN(c1cn[nH]c(=O)c1Cl)CC2 | 0.01 to 1000
NC(=O)c1nn(Cc2ccccc2C(F)F)c2c1CN(c1cn[nH]c(=O)c1Cl)CC2 | 0.01 to 1000
CN(Cc1ccccc1C(F)(F)F)c1ncnc2c1CCN(c1cn[nH]c(=O)c1Cl)C2 | 5000 to 10000
CCCCn1c(Oc2cccc(F)c2)nc2c1CCN(c1cn[nH]c(=O)c1Cl)C2 | 1000 to 5000
O=c1[nH]ncc(N2CCc3c(ncnc3Oc3ccccc3C(F)(F)F)C2)c1Cl | 0.01 to 1000

same assay, conditions: Table 9, read-out: hTRPCS-FLIPR IC50

Structure (SMILES) | IC50 [nM]
CCn1nnc(C)c1CN1CCN(c2cn[nH]c(=O)c2Cl)CC1 | 1000 to 5000
Cc1ccccc1C(O)C1CCN(c2cn[nH]c(=O)c2Cl)CC1 (stereo not shown) | 1000 to 5000
O=C(CN1CCN(c2cn[nH]c(=O)c2Cl)CC1)c1ccccc1C(F)(F)F | 1000 to 5000
Cc1ccccc1CC1(OC(N)=O)CCN(c2cn[nH]c(=O)c2Cl)CC1 | 1000 to 5000
C[C@H](O)c1ncccc1CN1CCN(c2cn[nH]c(=O)c2Cl)CC1 | 0.01 to 1000
CCc1ncccc1CC1(O)CCN(c2cn[nH]c(=O)c2Cl)CC1 | 1000 to 5000
C[C@@H](O)c1ncccc1CN1CCN(c2cn[nH]c(=O)c2Cl)CC1 | 1000 to 5000
CCc1ncccc1[C@@H](C)N1CCN(c2cn[nH]c(=O)c2Cl)CC1 | 0.01 to 1000
CCc1ncccc1NC1CCN(c2cn[nH]c(=O)c2Cl)CC1 | 5000 to 10000
O=c1[nH]ncc(N2CCN(S(=O)(=O)Cc3ccccc3C(F)(F)F)CC2)c1Cl | 1000 to 5000
CCc1ncccc1[C@@H](CC)N1CCN(c2cn[nH]c(=O)c2Cl)CC1 | 1000 to 5000
CCc1ncccc1[C@@H](CC)N1CCN(c2cn[nH]c(=O)c2C#N)CC1 | 0.01 to 1000
CC[C@@H](c1cccnc1CC(C)C)C1CCN(c2cn[nH]c(=O)c2Cl)CC1 | 0.01 to 1000
CCc1ncccc1[C@H](CC)N1CCN(c2cn[nH]c(=O)c2C#N)CC1 | 1000 to 5000
CCc1ncccc1[C@H](C(C)C)N1CCN(c2cn[nH]c(=O)c2Cl)CC1 | 1000 to 5000
CCc1ncccc1[C@@H](C(C)C)N1CCN(c2cn[nH]c(=O)c2Cl)CC1 | 0.01 to 1000
C[C@H](c1ccccc1C(F)(F)F)N1CCN(c2cn[nH]c(=O)c2Cl)CC1=O | 1000 to 5000
C[C@@H]1CN([C@@H](C)c2ccc(F)cc2C(F)(F)F)C(=O)CN1c1cn[nH]c(=O)c1Cl | 0.01 to 1000
CC(F)(F)c1ccccc1CC1(O)CCN(c2cn[nH]c(=O)c2Cl)CC1 | 0.01 to 1000
NC(=O)C1(Cc2ccccc2C(F)(F)F)CCN(c2cn[nH]c(=O)c2Cl)CC1 | 1000 to 5000

same assay, conditions: Table 10, read-out: TRPCS-FLIPR IC50

Structure (SMILES) | IC50 [nM]
C[C@@H]1CCC[C@H]1Cn1nnc2c1CCN(c1cn[nH]c(=O)c1Cl)C2 | 0.01 to 1000
C[C@H]1CCC[C@H]1Cn1nnc2c1CCN(c1cn[nH]c(=O)c1Cl)C2 | 0.01 to 1000
O=c1[nH]ncc(N2CCc3c(cnn3Cc3ccc(F)cc3CN3CCOCC3)C2)c1Cl | 0.01 to 1000
O=c1[nH]ncc(N2CCc3c(c(-c4ncn[nH]4)nn3Cc3ccccc3C(F)(F)F)C2)c1Cl | 1000 to 5000
C[C@H](c1ccc(F)cc1C(F)F)n1nnc2c1CCN(c1cn[nH]c(=O)c1Cl)C2 | 0.01 to 1000
C[C@H](c1cc(F)ccc1C(F)(F)F)n1nnc2c1CCN(c1cn[nH]c(=O)c1Cl)C2 | 0.01 to 1000
C[C@@H](c1ccc(Cl)cc1C(F)(F)F)n1nnc2c1CCN(c1cn[nH]c(=O)c1Cl)C2 | 0.01 to 1000
O=c1[nH]ncc(C2CCc3c(nnn3Cc3ccccc3C(F)(F)F)C2)c1Cl (stereo not shown) | 10000 to 500000
N#Cc1nn(Cc2ccccc2C(F)(F)F)c2c1CN(c1cn[nH]c(=O)c1Cl)CC2 | 0.01 to 1000
C[C@H](c1ccc(Cl)cc1C(F)(F)F)n1nnc2c1CCN(c1cn[nH]c(=O)c1Cl)C2 | 0.01 to 1000
O=c1[nH]ncc(N2CCc3c(c(CN4CCOCC4)nn3Cc3ccccc3C(F)F)C2)c1Cl | 0.01 to 1000
O=C1COCCN1Cc1nn(Cc2ccccc2C(F)F)c2c1CN(c1cn[nH]c(=O)c1Cl)CC2 | 0.01 to 1000
O=c1[nH]ncc(N2Cc3cnc(Oc4ccccc4C(F)(F)F)nc3C2)c1Cl | 0.01 to 1000
CNC(=O)c1nn([C@@H](C)c2ccccc2C(F)F)c2c1CN(c1cn[nH]c(=O)c1Cl)CC2 | 0.01 to 1000
C[C@@H](c1ccccc1C(F)(F)F)n1nc(C(N)=O)c2c1CCN(c1cn[nH]c(=O)c1Cl)C2 | 0.01 to 1000
COC[C@@H](c1ccccc1C(F)(F)F)n1cnc2c1CCN(c1cn[nH]c(=O)c1Cl)C2 | 0.01 to 1000
C[C@@H](c1ccc(F)cc1C(F)F)n1nc(C(N)=O)c2c1CCN(c1cn[nH]c(=O)c1Cl)C2 | 0.01 to 1000
C[C@H](c1cccnc1CC(F)F)n1nnc2c1CCN(c1cn[nH]c(=O)c1Cl)C2 | 0.01 to 1000
COC[C@H](c1ccc(F)cc1C(F)(F)F)n1cnc2c1CCN(c1cn[nH]c(=O)c1Cl)C2 | 0.01 to 1000
COC[C@@H](c1ccc(F)cc1C(F)(F)F)n1cnc2c1CCN(c1cn[nH]c(=O)c1Cl)C2 | 1000 to 5000

Structure (SMILES) | IC50 [nM]
CC(C)C(=O)Nc1nn(Cc2ccccc2C(F)(F)F)c2c1CN(c1cn[nH]c(=O)c1Cl)CC2 | 0.01 to 1000
CC(=O)Nc1nn(Cc2ccccc2C(F)(F)F)c2c1CN(c1cn[nH]c(=O)c1Cl)CC2 | 0.01 to 1000
N[C@@H](c1nn(Cc2ccccc2C(F)(F)F)c2c1CN(c1cn[nH]c(=O)c1Cl)CC2)C(F)(F)F | 1000 to 5000
N[C@H](c1nn(Cc2ccccc2C(F)(F)F)c2c1CN(c1cn[nH]c(=O)c1Cl)CC2)C(F)(F)F | 1000 to 5000
NC[C@H](c1ccc(F)cc1C(F)(F)F)n1cnc2c1CCN(c1cn[nH]c(=O)c1Cl)C2 | 5000 to 10000
O=c1[nH]ncc(N2CCc3c(nnn3Cc3ccc(F)cc3Cl)C2)c1Cl | 0.01 to 1000
CS(=O)(=O)c1nn(Cc2ccc(F)cc2C(F)F)c2c1CN(c1cn[nH]c(=O)c1Cl)CC2 | 0.01 to 1000
CCS(=O)(=O)c1nn(Cc2ccc(F)cc2C(F)F)c2c1CN(c1cn[nH]c(=O)c1Cl)CC2 | 1000 to 5000
C[C@H](c1ccccc1C(F)(F)F)n1[nH]c(=O)c2c1CCN(c1cn[nH]c(=O)c1Cl)C2 | 0.01 to 1000
C[C@@H](c1ccccc1C(F)(F)F)n1[nH]c(=O)c2c1CCN(c1cn[nH]c(=O)c1Cl)C2 | 0.01 to 1000
CN(c1ncc2c(n1)CN(c1cn[nH]c(=O)c1Cl)C2)c1ccccc1Cl | 0.01 to 1000
Nc1nn(Cc2ccccc2C(F)(F)F)c2c1CN(c1cn[nH]c(=O)c1Cl)CC2 | 1000 to 5000
C[C@H](c1ccc(F)cc1C(F)(F)F)n1[nH]c(=O)c2c1CCN(c1cn[nH]c(=O)c1Cl)C2 | 0.01 to 1000
C[C@@H](c1ccc(F)cc1C(F)(F)F)n1[nH]c(=O)c2c1CCN(c1cn[nH]c(=O)c1Cl)C2 | 0.01 to 1000
Nc1nn(Cc2ccc(F)cc2C(F)(F)F)c2c1CN(c1cn[nH]c(=O)c1Cl)CC2 | 0.01 to 1000
CS(=O)(=O)c1nn(Cc2ccc(F)cc2C(F)(F)F)c2c1CN(c1cn[nH]c(=O)c1Cl)CC2 | 0.01 to 1000
CN(c1ccc(F)cc1C(F)(F)F)c1n[nH]c2c1CCN(c1cn[nH]c(=O)c1Cl)C2 | 0.01 to 1000
O=c1[nH]ncc(N2CCc3c(Nc4ccc(F)cc4C(F)(F)F)n[nH]c3C2)c1Cl | 0.01 to 1000
C[C@H](c1ccc(F)cc1C(F)(F)F)c1n[nH]c2c1CCN(c1cn[nH]c(=O)c1Cl)C2 | 0.01 to 1000
